Columns and labels:
PLD2-Akt interaction = target: T1, PLD2-Akt interaction (Homo sapiens, UniProt P31749); assay: In vitro protein-protein interaction assay, purified PLD2 and Akt; format: binding; conditions: purified proteins, 10 μM inhibitor in reaction mixture
T1 construct: 6xHis (N); made in house; host or cells: Sf21 insect cells (baculovirus)
Description: 25 nM PLD2-PtS or PtS tag were incubated with 50 nM 6×His-Aktl for 2 h in 50 mM Tris pH 8.0, 0.01% Nonidet P-40, 150 mM NaCl, 0.5 mM EDTA, and 50 mg/mL avidin. Where indicated, 10 μM inhibitor was included in the reaction mixture. PtS-tagged proteins were captured by incubation with strep-tactin resin for 2 h.
Although proteins may co-IP from cell lysate, determining whether proteins form a direct interaction requires binding experiments with purified proteins. As described herein, recombinant Akt and PLD2 was then expressed and purified from Sf21 insect cells (FIG. 8C). […] Numbers indicate molecular weights in kilodaltons. […] Since PLD2 and Akt appear to interact directly, the PLD inhibitors were evaluated to determine whether they disrupted the protein-protein interaction as a potential mechanism by which PLD2 regulates activation of Akt in cells. As described herein, purified PLD2 and Akt were incubated in the presence of EVJ, JWJ, or the allosteric pan-Akt inhibitor, MK2206 (Hirai, H. et al., (2010) Mol. Cancer Ther. 9, 1956-1967) and proteins captured using affinity resin. […] Referring to FIG. 9B, the same procedure was used as in 9A, except 10 μM EVJ, JWJ, or Akt inhibitor MK2206 was included in the reaction mixture.

Akt = Akt membrane recruitment (membrane isolation), U87MG cells; format: cell-based, human; conditions: overnight 5 μM JWJ
Description: U87MG cells were seeded in 150 mm tissue culture plates at 2.6×10^6 cells/plate (4 plates per condition) and allowed to adhere overnight. The following day, cells were washed and media replaced with DMEM+indicated inhibitor or vehicle and cells were treated for up to 12 h. Cells were washed twice in 1×PBS then scraped in homogenization buffer (20 mM HEPES pH 7.4, 1 mM EDTA, 250 mM sucrose). Cells were pelleted by centrifugation at 1,000×g for 4 minutes at 4° C. […] Lysate was collected dropwise then centrifuged at 2,000×g for 10 min to pellet unbroken cells, nuclei, and heavy debris. The supernatant was subsequently centrifuged at 100,000×g for 60 min. The supernatant was saved as the cytosolic fraction and the 100,000×g pellet was washed once by resuspension in lysis buffer then centrifuged again under the same conditions.
2.5%, 10%, 17.5%, 25%, and 30% iodixanol solutions were prepared by mixing the appropriate ratios of 50% iodixanol with homogenization buffer. […]
In order to understand the mechanism by which PtdOH regulates Akt activation, it was first determined whether PtdOH and PIP3 share a binding site on Akt. […] Akt binding to PtdOH and PIP3 was then assessed using a protein-lipid overlay assay. […] Bound Akt was determined using an Akt specific antibody. […] GST-Akt PH domain fusion proteins were purified from E. coli and lipid binding was again assessed using a protein-lipid overlay.

LC3 and p62 = assay: Autophagy marker immunoblot (LC3-II, p62), U87MG cells; format: cell-based, human; conditions: for accumulation of LC3-II in the presence of bafilomycin A1: 10 nM bafilomycin A1 30 min, then inhibitor 6 h; for LC3-II levels relative to vehicle control: serum-free DMEM, 10 nM bafilomycin A1, 10 μM EVJ, 5 μM JWJ or 10 μM MK2206 for 6 h
Description: Lysates were prepared by incubating cell pellets in lysis buffer (see immunoprecipitation procedure) for 30 minutes at 4° C. Protein concentrations were measuring using the Bio-Rad protein assay reagent. The antibodies used in the various studies as described herein, along with their vendors and catalog numbers are provided in Table 3.
In addition to apoptosis, cells undergo another type of programmed cell death requiring autophagy (Tsujimoto and Shimizu, (2005) Cell Death Differ. 12 Suppl 2, 1528-1534), a process known to be stimulated by nutrient or growth factor deprivation (Kroemer, G. et al., (2010) Mol. Cell 40, 280-293). Autophagy is a multistep process involving formation of double-membrane autophagosomes that engulf cytosolic components and deliver cargo to lysosomes for digestion and nutrient recycling (Ravikumar, B. et al., (2009) J. Cell Sci. 122, 1707-1711). In order to determine if autophagy was perturbed following PLD or Akt inhibitor (MK2206) (Hirai, H. et al., (2010) Mol. Cancer Ther. 9, 1956-1967) treatment, the expression levels of the well-characterized autophagy makers microtubule-associated protein 1A/1B-light chain 3 (LC3) and p62 were measured. Autophagasome number is frequently assessed by measuring conversion of cytosolic LC3-I to a membrane-associated, lipidated LC3-II which is readily measureable as a faster migrating species of LC3 during SDS-PAGE (Kabeya, Y. et al., (2000) EMBO J. 19, 5720-5728). The other marker, p62, is an LC3 and ubiquitin-binding protein, involved in the regulation of protein aggregates and is degraded by autophagy (Komatsu, M. et al., (2005) J. Cell Biol. 169, 425-434). Induction of autophagy and successful degradation of autophagosomes would thus be accompanied by a decrease in p62 levels. […] Fold change in immunoreactivity relative to vehicle control. ANOVA with Dunnett's post-hoc test was used to compare inhibitor treatment to vehicle control (**p<0.01).
To conclusively determine that flux, rather than autophagosome initiation, is regulated by PLC, LC3-II conversion in the presence of the lysosomal proton pump inhibitor bafilomycin A1, which prevents autophagosome fusion to lysosomes and inhibits degradation of autophagosomes, was measured. Thus, bafilomycin A1 is commonly used to discriminate the effects of a compound on autophagy initiation versus flux by assessing LC3-II levels in the presence of a test compound after clamping degradation of autophagosomes (Yamamoto, A. et al., (1998) Cell Struct. Funct. 23, 33-42).

AMPK = AMPK activation immunoblot, U87MG cells; format: cell-based, human; conditions: for AMPK activation (phosphorylation of threonine 172) / phosphorylation of acetyl-coA carboxylase (serine 79): 24 hours, 10 mM EVJ or 5 mM JWJ
Description: Another well-known regulator of autophagy is the adenosine monophosphate-activated protein kinase (AMPK). Changes in intracellular energy balance or metabolic stress are known to activate AMPK (Hardie, D. G. (2007) Nat. Rev. Mol. Cell Bio. 8, 774-785). AMPK serves as a metabolic checkpoint, acting to restore ATP levels through regulation of metabolic enzymes and inhibition of pro-growth anabolic pathways (Hardie, D. G. (2007) Nat. Rev. Mol. Cell Bio. 8, 774-785). […] U87MG cells were treated for 24 hours with […] before lysis and immunoblotting. AMPK activation was measured by assessing phosphorylation at threonine 172 and also by measuring activation of acetyl coenzyme A carboxylase (ACC) at serine 79.
Another AMPK substrate and component of the autophagasome initiation complex is Unc-51-like kinase 1 (ULK1). Several studies (Egan, D. F. et al., (2011) Science 331, 456-461; Kim, J. et al., (2011) Nature Cell Bio. 13, 132-141) have recently identified multiple AMPK sites on ULK1 that function to enhance initiation of autophagy. […] To determine whether the induction of autophagy through AMPK activation requires Akt, Aktl was silenced and then evaluated for effects of PLD inhibition on AMPK and ULK1 phosphorylation. Aktl was chosen to silence since Aktl phosphorylation was decreased following PLD inhibition in U87MG cells. […] U87MG cells were transfected with Aktl siRNA for 72 hours prior to cell lysis. Cells were treated with […] JWJ 24 hours prior to cell lysis.

myrAktl = assay: Akt phosphorylation immunoblot, myrAktl U87MG cells; format: cell-based, human; conditions: overnight, serum-free DMEM; 10 μM EVJ or 5 μM JWJ
Description: To confirm the observed effects on autophagy and cell death following PLD inhibition in glioma cells was due to the regulation of Akt by PLD2, a stable U87MG cell line was developed to expresses a constitutively active form of Akt under the transcriptional control of the tetracycline repressor protein (Yao, F. et al., (1998) Hum. Gene Ther. 9, 1939-1950). This Akt construct contains the myristoylation sequence from Src kinase (Kohn, A. D. et al., (1996) J. Biol. Chem. 271, 31372-31378) and is constitutively membrane associated and active. Without wishing to be bound by a particular theory, if PtdOH serves to enhance membrane docking of Akt then PLD inhibition should not decrease phosphorylation of myristoylated Akt (myrAkt) since this construct bypasses lipid recruitment signals for membrane association. […] Tetracycline inducible myrAktl-expressing U87MG cells, or parental cells, were seeded into media containing 0.1 ug/ml tetracycline and protein expression induced for approximately 24 hours. […] Cells were seeded and treated as in figure A and immunoblotted for phosphorylated and total AMPK. AMPK activation was quantitated by densitometric quantification of the phospho-AMPK band over the total AMPK band. Fold changes were calculated by normalizing the DMSO condition to 1 for each cell line. […] Referring to FIG. 23B, parental or myrAktl U87MG cells were treated with the indicated inhibitors as in 23A overnight before blotting for phosphorylated and total Akt.

PLD = assay: Endogenous PLD activity assay (PtdBuOH) in U87MG cells; format: cell-based, human
Description: Data is presented as the ratio of the predominant phosphatidylbutanol peaks to the internal standard. To generate concentration response curves, U87MG cells were serum starved for approximately 24 hours. Cells were treated with the indicated concentration of PLD inhibitor for 15 minutes prior to addition of n-butanol containing media and phospolipid extraction.
Cells were pretreated with inhibitors 30 min prior to measurement of PLD activity. Data is presented as the percent activity remaining after PLD inhibitor treatment relative to control.

T1 sequence (P31749 whole entry): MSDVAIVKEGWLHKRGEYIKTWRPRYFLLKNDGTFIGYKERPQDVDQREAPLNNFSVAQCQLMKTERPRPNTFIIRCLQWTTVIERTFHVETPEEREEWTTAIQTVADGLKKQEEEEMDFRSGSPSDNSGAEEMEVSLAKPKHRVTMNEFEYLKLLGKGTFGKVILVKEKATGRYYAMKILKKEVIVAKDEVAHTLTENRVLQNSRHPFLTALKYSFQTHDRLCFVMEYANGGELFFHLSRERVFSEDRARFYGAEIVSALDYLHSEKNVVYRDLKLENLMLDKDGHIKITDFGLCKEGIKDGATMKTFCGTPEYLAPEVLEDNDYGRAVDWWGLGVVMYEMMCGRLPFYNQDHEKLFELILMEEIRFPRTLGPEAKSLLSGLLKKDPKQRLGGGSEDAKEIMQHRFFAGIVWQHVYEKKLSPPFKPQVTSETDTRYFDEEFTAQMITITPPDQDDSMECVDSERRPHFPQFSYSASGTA

Row | SMILES | PLD2-Akt interaction (PLD2-Akt interaction) | accumulation of LC3-II in the presence of bafilomycin A1 (LC3 and p62) | AMPK activation (phosphorylation of threonine 172) (AMPK) | phosphorylation of acetyl-coA carboxylase (serine 79) (AMPK) | phosphorylated Akt in myrAktl U87MG cells (myrAktl) | LC3-II levels relative to vehicle control (LC3 and p62) | other results
1 | O=C(NCCN1CCC2(CC1)C(=O)NCN2c1cccc(F)c1)c1ccc2ccccc2c1 [No. 1, N-(2-(1-(3-fluorophenyl)-4-oxo-1,3,8-triazaspiro[4.5]decan-8-yl)ethyl)-2-naphthamide] | detected even in the presence of PLD inhibitors | no additional accumulation of LC3-II | observed to increase | increased phosphorylation of acetyl-coA carboxylase | failed to reduce levels of phosphorylated Akt | – | membrane recruitment of Akt (Akt): diminished; AMPK or ULK1 phosphorylation when Aktl is silenced (AMPK; Aktl siRNA 72 hours, 5 mM JWJ 24 hours): does not appear to increase AMPK or ULK1 phosphorylation more than DMSO control
2 | NC1(c2ccc(-c3nc4ccn5c(=O)[nH]nc5c4cc3-c3ccccc3)cc2)CCC1 [MK2206] | disrupted the PLD2-Akt interaction | no additional accumulation of LC3-II | – | – | – | increased LC3-II levels relative to vehicle control | –
3 | CO/C1=C\C(C)=C\[C@@H](C)[C@@H](O)[C@@H](C)C/C(C)=C/C=C/[C@H](OC)[C@@H]([C@@H](C)[C@@H](O)[C@H](C)[C@@]2(O)C[C@@H](O)[C@H](C)[C@@H](C(C)C)O2)OC1=O [Bafilomycin A1] | – | – | – | – | – | increased LC3-II levels relative to vehicle control | –
4 | C[C@@H](CN1CCC(n2c(=O)[nH]c3cc(Br)ccc32)CC1)NC(=O)[C@@H]1C[C@@H]1c1ccccc1 [No. 2, (1R,2S)—N-((S)-1-(4-(5-bromo-2-oxo-2,3-dihydro-1H-benzo[d]imidazol-1-yl)piperidin-1-yl)propan-2-yl)-2-phenylcyclopropane carboxamide] | detected even in the presence of PLD inhibitors | no additional accumulation of LC3-II | observed to increase | increased phosphorylation of acetyl-coA carboxylase | failed to reduce levels of phosphorylated Akt | – | IC50 (PLD; U87MG cells, serum withdrawn 24 h, inhibitor pretreatment 30 min, read-out: IC50, attenuation of PLD activity following serum-withdrawal): ~0.5 µM
5 | C[C@@H](CN1CCC(n2c(=O)[nH]c3cc(Cl)ccc32)CC1)NC(=O)c1ccc2ccccc2c1 [VU0155069, reference compound] | – | – | – | – | – | – | PtdBuOH production (PLD; U87MG glioblastoma cells, FIG. 28B): blocks PtdBuOH production
6 | CCC(=O)N1CCN(c2ccc(-n3c(=O)ccc4cnc5ccc(-c6cnc7ccccc7c6)cc5c43)cc2C(F)(F)F)CC1 [Torinl, reference compound] | – | – | – | – | decreased phosphorylation of myrAktl | – | –

Source: patent US20170319611A1, “METHODS AND COMPOSITIONS COMPRISING AKT INHIBITORS AND/OR PHOSPHOLIPASE D INHIBITORS” (Vanderbilt University, priority 2012, published 2017)
